Patent publication US20220135622A1, “ANTIBACTERIAL PEPTIDES AND METHODS OF USE” (priority 2019, published 2022)
In brackets after ≈: the same amount, converted by molar mass. Read-outs that look alike come from different tables or passages of the source. Square brackets hold non-standard residues; d marks the D form. Peptide text beside a SMILES is read from it. Bip = N[C@@H](Cc1ccc(-c2ccccc2)cc1)C(=O)O; Ahp(2) = CCCCC[C@H](N)C(=O)O; NMeM = CN[C@@H](CCSC)C(=O)O; hSer = N[C@@H](CCO)C(=O)O; NMeA = CN[C@@H](C)C(=O)O; Nle = CCCC[C@H](N)C(=O)O; Dap = NC[C@H](N)C(=O)O; Aib = CC(C)(N)C(=O)O

Assays:
E. coli BW25113 = assay type: cell-based, Escherichia coli
Summary of the method: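 Growth inhibition: log-phase cells (OD600 ~0.001), peptides in 2-fold series up to 400–800 μM in MHB II, EDTA 0.5 mM (E. coli) or 0.125 mM (USA300), 4 h at 37 °C, ATP luminescence readout. MICs: inoculum at OD600 ~0.0002, with or without EDTA, 20 h at 37 °C, OD600 endpoint.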

K. pneumoniae = assay type: cell-based, Klebsiella pneumoniae
Protocol: (§1) Bacterial growth conditions. LB or Mueller Hinton II cation-adjusted broth (MHB II, BBL 212322) was prepared according to manufacturer's instructions and supplemented with arabinose at 0.02% for overnight growth or at indicated concentrations in the description of the figures. Bacterial cultures were grown at 37° C. When appropriate, media was supplemented with kanamycin (50 μg/mL), carbenicillin (50 μg/mL), chloramphenicol (12.5 or 25 μg/mL), hygromycin (200 μg/mL), and/or gentamicin (10 μg/mL).
(§2) Peptide sensitivity and MIC assays. Lyophilized peptides (Smartox Biotechnology, CPC Scientific. ABclonal) were solubilized to 10 mM in Tris buffer, pH 8, prior to making a 2-fold dilution series in MHBII cation adjusted broth with highest final assay concentration of 400-800 μM. Bacteria were grown to log phase and added to final OD600˜0.001. The final EDTA concentration was 0.5 mM for E. coli strains and 0.125 mM for USA300. The final volume of 10 μL/well in a 384 well black, clear bottom plate (Corning) was spun <1 min at <250×g and then incubated at 37° C. After 4 h, an equal volume (10 μL) of BacTiter-Glo™ (Promega) was added to each well and luminescence was read after 5 min on an EnVision plate reader (PerkinElmer). To measure the minimal inhibitory concentrations (MICs), bacteria from fresh overnight plates or log phase cultures were diluted with or without EDTA and peptides as described above to final OD600˜0.0002. Plates were incubated at 37° C. for 20 h before measuring OD600 with an EnVision plate reader.

A. baumannii = assay type: cell-based, Acinetobacter baumannii
Protocol: as §1, §2

P. aeruginosa = assay type: cell-based, Pseudomonas aeruginosa
Protocol: as §1, §2

E. coli ΔwaaD MCR-1 = experiment: MIC assay, E. coli ΔwaaD MCR-1; assay type: cell-based, Escherichia coli; details: Table 7
Protocol: as §1, §2

E. coli ΔwaaD + vect. = experiment: MIC assay, E. coli ΔwaaD + vect.; assay type: cell-based, Escherichia coli; details: Table 7
Protocol: as §1, §2

Row | Compound | MIC E. coli BW25113 (E. coli BW25113; Table 8) | MIC K. pneumoniae (K. pneumoniae; Table 8) | MIC A. baumannii (A. baumannii; Table 8) | MIC R. aeruginosa (P. aeruginosa; Table 8) | MIC E coli ΔwaaD − MCR1 (E. coli ΔwaaD MCR-1) | MIC E. coli ΔwaaD + vect. (E. coli ΔwaaD + vect.) | MIC E. coli BW25113 (E. coli BW25113; BW25113) | MIC K. pneumoniae (K. pneumoniae) | MIC A. baumannii (A. baumannii) | MIC R. aeruginosa (P. aeruginosa)
1 | CCCC[C@H](NC(=O)[C@@H]1CCCN1C(=O)[C@H](Cc1ccc(O)cc1)NC(C)=O)C(=O)N[C@H](C(=O)N[C@@H](C)C(=O)N[C@@H](CCCNC(=N)N)C(=O)N[C@@H](CCCNC(=N)N)C(=O)N[C@@H](Cc1ccccc1)C(=O)N[C@@H](CC(C)C)C(=O)N[C@@H](CCC(=O)O)C(=O)N[C@@H](CCCCN)C(=O)N[C@@H](Cc1c[nH]c2ccccc12)C(=O)NCC(=O)N[C@@H](CC(C)C)C(=O)N[C@@H](CC(C)C)C(=O)N[C@@H](CCCNC(=N)N)C(N)=O)[C@@H](C)O [compound 62] (Ac-YP[Nle]TARRFLEKWGLLR-NH2) | 400 µM (≈ 824 µg/mL) | 200 µM (≈ 412 µg/mL) | 200 µM (≈ 412 µg/mL) | 200 µM (≈ 412 µg/mL) | 200 µM (≈ 412 µg/mL) | <6.25 µM |  |  |  | 
2 | CSCC[C@H](NC(=O)[C@@H]1CCCN1C(=O)[C@H](Cc1ccc(O)cc1)NC(C)=O)C(=O)N[C@H](C(=O)NC(C)(C)C(=O)N[C@@H](CCCNC(=N)N)C(=O)N[C@@H](CCCNC(=N)N)C(=O)N[C@@H](Cc1ccccc1)C(=O)N[C@@H](CC(C)C)C(=O)N[C@@H](CCC(=O)O)C(=O)N[C@@H](CCCCN)C(=O)N[C@@H](Cc1c[nH]c2ccccc12)C(=O)NCC(=O)N[C@@H](CC(C)C)C(=O)N[C@@H](CC(C)C)C(=O)N[C@@H](CCCNC(=N)N)C(N)=O)[C@@H](C)O [compound 93] (Ac-YPMT[Aib]RRFLEKWGLLR-NH2) | 200.0 µM (≈ 419 µg/mL) | 400.0 µM (≈ 837 µg/mL) | 50.0 µM (≈ 105 µg/mL) | >400.0 µM |  |  |  |  |  | 
3 | CSCC[C@H](NC(=O)[C@@H]1CCCN1C(=O)[C@H](CCCNC(=N)N)NC(C)=O)C(=O)N[C@H](C(=O)N[C@@H](C)C(=O)N[C@@H](CCCNC(=N)N)C(=O)N[C@@H](CCCNC(=N)N)C(=O)N[C@@H](Cc1ccc(-c2ccccc2)cc1)C(=O)N[C@@H](CC(C)C)C(=O)N[C@@H](CCC(=O)O)C(=O)N[C@@H](CCCCN)C(=O)N[C@@H](Cc1c[nH]c2ccccc12)C(=O)NCC(=O)N[C@@H](CC(C)C)C(N)=O)[C@@H](C)O [compound 207] (Ac-RPMTARR[Bip]LEKWGL-NH2) | 100.0 µM (≈ 188 µg/mL) | 100.0 µM (≈ 188 µg/mL) | 100.0 µM (≈ 188 µg/mL) | 100.0 µM (≈ 188 µg/mL) |  |  |  |  |  | 
4 | CSCC[C@H](NC(=O)[C@H](CN)NC(=O)[C@H](CCSC)NC(=O)[C@@H]1CCCN1C(=O)[C@H](CCCNC(=N)N)NC(C)=O)C(=O)N[C@@H](CCCNC(=N)N)C(=O)N[C@@H](CCCNC(=N)N)C(=O)N[C@@H](Cc1ccc(-c2ccccc2)cc1)C(=O)N[C@@H](CC(C)C)C(=O)N[C@@H](CCC(=O)O)C(=O)N[C@@H](CCCCN)C(=O)N[C@@H](Cc1c[nH]c2ccccc12)C(=O)NCC(=O)N[C@@H](CC(C)C)C(N)=O [compound 209] (Ac-RPM[Dap]MRR[Bip]LEKWGL-NH2) | 6.25 µM (≈ 12 µg/mL) | 12.5 µM (≈ 24 µg/mL) | 12.5 µM (≈ 24 µg/mL) | 25.0 µM (≈ 48.1 µg/mL) |  |  |  |  |  | 
5 | CSCC[C@H](NC(=O)[C@@H]1CCCN1C(=O)[C@H](CCCNC(=N)N)NC(C)=O)C(=O)N[C@H](C(=O)N[C@@H](C)C(=O)N[C@@H](CCCNC(=N)N)C(=O)N[C@@H](CCCNC(=N)N)C(=O)N[C@@H](Cc1c[nH]c2ccccc12)C(=O)N[C@@H](CC(C)C)C(=O)N[C@@H](CCO)C(=O)N[C@@H](CCCCN)C(=O)N[C@@H](CCCNC(=N)N)C(=O)NCC(=O)N[C@@H](CC(C)C)C(N)=O)[C@@H](C)O [compound 211] (Ac-RPMTARRWL[hSer]KRGL-NH2) | 50.0 µM (≈ 89.2 µg/mL) | >400.0 µM | >400.0 µM | >400.0 µM |  |  |  |  |  | 
6 | CCCCC[C@H](NC(=O)[C@@H](NC(=O)[C@H](CCSC)NC(=O)[C@@H]1CCCN1C(=O)[C@H](CCCNC(=N)N)NC(C)=O)[C@@H](C)O)C(=O)N[C@@H](CCCNC(=N)N)C(=O)N[C@@H](CCCNC(=N)N)C(=O)N[C@@H](Cc1c[nH]c2ccccc12)C(=O)N[C@@H](CC(C)C)C(=O)N[C@@H](CCC(=O)O)C(=O)N[C@@H](CCCCN)C(=O)N[C@@H](CCCNC(=N)N)C(=O)NCC(=O)N[C@@H](CC(C)C)C(N)=O [compound 212] (Ac-RPMT[Ahp(2)]RRWLEKRGL-NH2) | 100.0 µM (≈ 187 µg/mL) | >400.0 µM | 200.0 µM (≈ 373 µg/mL) | >400.0 µM |  |  |  |  |  | 
7 | COC[C@H](NC(=O)[C@@H](NC(=O)[C@H](CCSC)NC(=O)[C@@H]1CCCN1C(=O)[C@H](CCCNC(=N)N)NC(C)=O)[C@@H](C)O)C(=O)N[C@@H](CCCNC(=N)N)C(=O)N[C@@H](CCCNC(=N)N)C(=O)N[C@@H](Cc1c[nH]c2ccccc12)C(=O)N[C@@H](CC(C)C)C(=O)N[C@@H](C)C(=O)N[C@@H](CCCCN)C(=O)N[C@@H](CCCNC(=N)N)C(=O)NCC(=O)N[C@@H](CC(C)C)C(N)=O [compound 215] (Ac-RPMTS(Me)RRWLAKRGL-NH2) |  |  |  |  |  |  | 200.0 µM (≈ 357 µg/mL) | >400.0 µM | >400.0 µM | >400.0 µM
8 | CSCC[C@@H](C(=O)N[C@H](C(=O)N(C)[C@@H](C)C(=O)N[C@@H](CCCNC(=N)N)C(=O)N[C@@H](CCCNC(=N)N)C(=O)N[C@@H](Cc1c[nH]c2ccccc12)C(=O)N[C@@H](CC(C)C)C(=O)N[C@@H](C)C(=O)N[C@@H](CCCCN)C(=O)N[C@@H](CCCNC(=N)N)C(=O)NCC(=O)N[C@@H](CC(C)C)C(N)=O)[C@@H](C)O)N(C)C(=O)[C@@H]1CCCN1C(=O)[C@H](CCCNC(=N)N)NC(C)=O [compound 216] (Ac-RP[NMeM]T[NMeA]RRWLAKRGL-NH2) |  |  |  |  |  |  | 100.0 µM (≈ 178 µg/mL) | >400.0 µM | >400.0 µM | >400.0 µM
9 | Ac-RPMTARRFLAKRGL-NH2 [compound 210] | 200.0 µM | >400.0 µM | >400.0 µM | >400.0 µM |  |  |  |  |  | 
10 | Ac-RPMTARRWLAKRGL-NH2 [compound 201] |  |  |  |  |  |  | 25.0 µM | >400.0 µM | >400.0 µM | >400.0 µM
11 | Ac-RPMTARRWLEKRGL-NH2 [compound 202] | 50.0 µM | >400.0 µM | >400.0 µM | >400.0 µM |  |  |  |  |  | 
12 | Ac-RPMTFRRFLEKWGL-NH2 [compound 73] | 50 µM | 200 µM | 50 µM | 800 µM |  |  |  |  |  | 
13 | Ac-RPMTMRRFLEKWGL-NH2 [compound 206] | 200.0 µM | 200.0 µM | 200.0 µM | 200.0 µM |  |  |  |  |  | 
14 | Ac-RPMTSRRWLAKRGL-NH2 [compound 214] |  |  |  |  |  |  | 100.0 µM | >400.0 µM | >400.0 µM | >400.0 µM
15 | Ac-RPMTWRRFLAKRGL-NH2 [compound 203] |  |  |  |  |  |  | 200.0 µM | >400.0 µM | 400.0 µM | >400.0 µM
16 | Ac-RPMTWRRFLAKYGL-NH2 [compound 200] |  |  |  |  |  |  | 50.0 µM | 200.0 µM | 50.0 µM | 50.0 µM
17 | Ac-YPMTARRFFEKWGLLR-NH2 [compound 94] | 200.0 µM | >400.0 µM | 200.0 µM | >400.0 µM |  |  |  |  |  | 
18 | Ac-YPMTARRFLQKWGLLR-NH2 [compound 72] | 400 µM | 400 µM | 50 µM | 800 µM |  |  |  |  |  | 
19 | Ac-YPMTFRRFLAKWGLLR-NH2 [compound 87] | 100.0 µM | 25.0 µM | 25.0 µM | 50.0 µM |  |  |  |  |  | 
20 | Ac-YPMTLRRFLEKWGLLR-NH2 [compound 83] | 200.0 µM | 100.0 µM | 50.0 µM | 200.0 µM |  |  |  |  |  | 
